Measured values from patent US20250163119A1, “COMPOUNDS FOR THE TREATMENT OF DIABETES OR OBESITY” (Eli Lilly and Company, priority 2023, published 2025).
*1 amine or outer side, *2 acyl side, *3 side chain or, on linkers, in order; H or OH if unused. Where a SMILES comes first, the peptide text is derived from it. Side-chain parts run from the residue outwards. [ ]: non-standard residue; d: D form. The star is where a group is joined. C20 diacid = O=C(O)CCCCCCCCCCCCCCCCCCC(=O)*; γGlu = O=C(O)[C@H](CCC(=O)[*:2])N[*:1]; εLys = N[C@@H](CCCCN[*:1])C(=O)[*:2]; αMeL = CC(C)C[C@](C)(N)C(=O)O; AEEA = NCCOCCOCC(=O)O

What was measured:
human CRHR1 = molecular target: T1, human CRHR1 (Homo sapiens, UniProt P34998); assay: Human CRHR1 cAMP assay (HTRF) in HEK293 cells stably expressing human CRHR1; type: cell-based; details: HEK293 cells overexpressing human CRHR1; relative EC50, maximum 66 nM human UCN1; mean ± SE; read-out: hCRHR1 cAMP EC50 (pM, ± SE)
T1 construct: expressed in transfected cells
T1 sequence (P34998 24-415): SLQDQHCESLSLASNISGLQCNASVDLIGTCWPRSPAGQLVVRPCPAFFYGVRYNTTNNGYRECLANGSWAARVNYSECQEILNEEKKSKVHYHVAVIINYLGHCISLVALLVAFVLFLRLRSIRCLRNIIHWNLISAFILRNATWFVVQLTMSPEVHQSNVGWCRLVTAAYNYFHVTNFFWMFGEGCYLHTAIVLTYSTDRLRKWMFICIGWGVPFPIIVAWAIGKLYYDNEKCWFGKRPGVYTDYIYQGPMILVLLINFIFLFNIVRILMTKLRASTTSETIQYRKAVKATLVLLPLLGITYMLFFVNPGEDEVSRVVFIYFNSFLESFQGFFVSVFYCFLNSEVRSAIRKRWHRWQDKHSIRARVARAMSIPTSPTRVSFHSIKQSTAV
Method: (§1) The corticotropin-releasing hormone (CRH) receptor 1 and 2 (CRHR1 and CRHR2) are GPCRs that were functionally coupled to Gs proteins. Stimulation of these receptors results in an increased production of intracellular cAMP, which can be detected using standard in vitro technologies. In vitro activity of peptides was measured by the amount of cAMP formed in human CRHR1 and CRHR2 overexpressed cells.
(§2) Human CRHR1 and CRHR2 receptors were stably expressed in human embryonic kidney cells (HEK293) under control of a pcDNA expression vector. The HEK293 cell line was cultured in DMEM 1× (Gibco, 93-0152DK) supplemented with 10% FBS, 1 mM sodium pyruvate, 1×MEM NEAA, 1× GlutaMAX and 10 mM HEPES. The plasmids of human CRHR1-pQCXIP (T7364) and human CRHR2b-R2683puro (T16761) DNA were transfected into HEK293 cells using Lipo fectAMINE 3000 Transfection reagent (Invitrogen, L3000001). After 20 days under selection, the mRNA levels from different clones were measured to confirm the expression of human CRHR1 and CRHR2 genes. To determine the function of over-expressed CRHR cells, the intracellular cAMP levels in response to human UCN1 and UCN2 were measured and compared to the expression of CRHR1 and CRHR2 mRNA in each clone.
(§3) Human CRHR1 cells were cultured in DMEM 1× (Gibco, 93-0152DK) supplemented with 10% FBS, 1 mM sodium pyruvate, 1×MEM NEAA, 1×GlutaMAX, 10 mM HEPES, and 800 μg/ml G418. Human CRHR2 cells were cultured at the same media (DMEM 1×, 10% FBS, 1 mM sodium pyruvate, 1×MEM NEAA, 1×GlutaMAX, 10 mM HEPES) in the presence of 0.5 ug/mL puromycin. Cultured cells were grown to 90% confluency and harvested. The cells were frozen at 10×10e6/ml in a mixture of […] fetal bovine serum plus 7% DMSO and stored in liquid nitrogen until use.
(§4) On the day of the assay, the frozen cells were thawed and diluted in assay buffer (Phenol Red free MEM (Corning, 17-305-CV, lot #32121010), 0.1% Casein (Sigma C4765, lot #SLCG2120), 5 mM HEPES pH 7.4 containing 0.25 mM IBMX). 10 ul of human CRHR1 cells (25,000 cells) or 10 μL of human CRHR2 cells (5,000 cells) were dispensed into each well of white poly-D-lysine coated 384-well plates (Corning cat #354661). Test compounds diluted in DMSO were added (200 nL/well) in a 1:3 dilution series using ECHO acoustic liquid handler (Beckman). The mixture of cells and test compounds were incubated at 37° C. for 1 hour for the hCRHR1 plate, while the CRHR2 plates were incubated at room temperature for 30 min.
(§5) The amount of intracellular cAMP was quantitated using HTRF technology (Homogeneous Time Resolved Fluorescence; Cisbio) as per vendor instructions. Briefly, 10 uL CAMP-d2 conjugate and 10 uL anti-CAMP-cryptate conjugate in lysis buffer were incubated with the treated cells at room temperature for 60 min. The HTRF signal was immediately detected using an Envision plate reader (Perkin-Elmer) to calculate the ratio of fluorescence at 665 to 620 nm.
(§6) Raw fluorescence data for concentration curves of the peptides in Table 2 and Table 3 were converted to cAMP amount (pmol/well) using a cAMP standard curve generated for each experiment.

human CRHR2 = molecular target: T2, human CRHR2 (Homo sapiens, UniProt Q13324); assay: Human CRHR2 cAMP assay (HTRF) in HEK293 cells stably expressing human CRHR2; type: cell-based; details: HEK293 cells overexpressing human CRHR2; relative EC50, maximum 10 nM human UCN2; mean ± SE; read-out: hCRHR2 cAMP EC50 (pM, ± SE)
T2 construct: expressed in transfected cells
T2 sequence (Q13324 1-438 isoform Q13324-2): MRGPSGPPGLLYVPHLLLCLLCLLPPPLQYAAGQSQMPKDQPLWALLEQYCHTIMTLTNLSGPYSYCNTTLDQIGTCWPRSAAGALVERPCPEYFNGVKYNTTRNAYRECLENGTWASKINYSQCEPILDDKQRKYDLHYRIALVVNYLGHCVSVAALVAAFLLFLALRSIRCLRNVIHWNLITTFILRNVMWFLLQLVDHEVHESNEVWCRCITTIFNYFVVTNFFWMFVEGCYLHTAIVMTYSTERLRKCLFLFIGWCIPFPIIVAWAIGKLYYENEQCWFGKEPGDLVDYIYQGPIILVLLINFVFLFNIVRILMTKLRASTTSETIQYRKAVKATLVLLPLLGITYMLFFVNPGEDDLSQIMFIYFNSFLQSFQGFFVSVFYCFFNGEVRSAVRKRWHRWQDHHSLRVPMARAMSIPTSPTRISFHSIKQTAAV
Method: as §1, §2, §3, §4, §5, §6

Molecule `CC[C@H](C)[C@H](NC(C)=O)C(=O)N[C@H](C(=O)N[C@H](C(=O)N[C@@H](CO)C(=O)N[C@@](C)(CC(C)C)C(=O)N[C@@H](CC(=O)O)C(=O)N[C@@H](C(=O)N1CCC[C@H]1C(=O)N[C@H](C(=O)NCC(=O)N[C@@](C)(CC(C)C)C(=O)N[C@@H](CC(C)C)C(=O)N[C@@H](CCC(N)=O)C(=O)N[C@H](C(=O)N[C@@H](CCCCN)C(=O)N[C@@H](CC(C)C)C(=O)N[C@@H](CCC(=O)O)C(=O)N[C@@H](CCC(N)=O)C(=O)N[C@@H](CCC(=O)O)C(=O)N[C@@H](CCCNC(=N)N)C(=O)N[C@@H](C)C(=O)N[C@@H](CCC(=O)O)C(=O)N[C@@H](CCCCN)C(=O)N[C@@H](C)C(=O)N[C@@H](CCCNC(=N)N)C(=O)N[C@@H](CCC(N)=O)C(=O)N[C@@H](CCC(N)=O)C(=O)N[C@@H](C)C(=O)N[C@@H](CCCCNC(=O)CC[C@H](NC(=O)COCCOCCNC(=O)CC[C@H](NC(=O)CCCCCCCCCCCCCCCCCCC(=O)O)C(=O)O)C(=O)O)C(=O)N[C@@H](CCC(=O)O)C(=O)N[C@@H](CC(N)=O)C(=O)N[C@H](C(=O)N[C@@H](CCC(=O)O)C(=O)N[C@H](C(=O)N[C@@H](CC(C)C)C(=O)N[C@@H](C)C(=O)N[C@@H](CCC(N)=O)C(=O)N[C@H](C(N)=O)C(C)C)[C@@H](C)CC)[C@@H](C)O)[C@@H](C)CC)[C@@H](C)O)C(C)C)[C@@H](C)O)C(C)C` [SEQ ID NO: 30, Ac-IVTS αMeL D (D-Val) PTG αMeL LQIKLEQERAEKARQQAK(γE-(2-[2-(2-Amino-ethoxy)-ethoxy]-acetyl)-γE-CO-(CH2)18-CO2H)ENTEILAQV-NH2] (Ac-IVTS[αMeL]D[dV]PTG[αMeL]LQIKLEQERAEKARQQAK([γGlu-AEEA-γGlu-C20 diacid])ENTEILAQV-NH2) has an EC50 (human CRHR1) greater than 1e+07 pM and an EC50 (human CRHR2) of 5.7 ± 0.1 pM.

`CC[C@H](C)[C@H](NC(C)=O)C(=O)N[C@H](C(=O)N[C@H](C(=O)N[C@@H](CO)C(=O)N[C@@](C)(CC(C)C)C(=O)N[C@@H](CC(=O)O)C(=O)N[C@@H](C(=O)N1CCC[C@H]1C(=O)N[C@H](C(=O)NCC(=O)N[C@@](C)(CC(C)C)C(=O)N[C@@H](CC(C)C)C(=O)N[C@@H](CCC(N)=O)C(=O)N[C@H](C(=O)N[C@@H](CCCCN)C(=O)N[C@@H](CC(C)C)C(=O)N[C@@H](CCC(=O)O)C(=O)N[C@@H](CCC(N)=O)C(=O)N[C@@H](CCC(=O)O)C(=O)N[C@@H](CCCNC(=N)N)C(=O)N[C@@H](C)C(=O)N[C@@H](CCC(=O)O)C(=O)N[C@@H](CCCCN)C(=O)N[C@@H](C)C(=O)N[C@@H](CCCNC(=N)N)C(=O)N[C@@H](CCC(N)=O)C(=O)N[C@@H](CCC(N)=O)C(=O)N[C@@H](C)C(=O)N[C@@H](CCCCNC(=O)CC[C@H](NC(=O)CC[C@H](NC(=O)COCCOCCNC(=O)CCCCCCCCCCCCCCCCCCC(=O)O)C(=O)O)C(=O)O)C(=O)N[C@@H](CCC(=O)O)C(=O)N[C@@H](CC(N)=O)C(=O)N[C@H](C(=O)N[C@@H](CCC(=O)O)C(=O)N[C@H](C(=O)N[C@@H](CC(C)C)C(=O)N[C@@H](C)C(=O)N[C@@H](CCC(N)=O)C(=O)N[C@H](C(N)=O)C(C)C)[C@@H](C)CC)[C@@H](C)O)[C@@H](C)CC)[C@@H](C)O)C(C)C)[C@@H](C)O)C(C)C` [SEQ ID NO: 31, Ac-IVTS αMeL D (D-Val) PTG αMeL LQIKLEQERAEKARQQAK((γE)2-(2-[2-(2-Amino-ethoxy)-ethoxy]-acetyl)-CO-(CH2)18-CO2H)ENTEILAQV-NH2] (Ac-IVTS[αMeL]D[dV]PTG[αMeL]LQIKLEQERAEKARQQAK([γGlu-γGlu-AEEA-C20 diacid])ENTEILAQV-NH2) was tested, and the EC50 (human CRHR1) was greater than 1e+07 pM and the EC50 (human CRHR2) was 4.5 ± 0.7 pM.

Work on `CC[C@H](C)[C@H](NC(C)=O)C(=O)N[C@H](C(=O)N[C@H](C(=O)N[C@@H](CO)C(=O)N[C@@](C)(CC(C)C)C(=O)N[C@@H](CC(=O)O)C(=O)N[C@@H](C(=O)N1CCC[C@H]1C(=O)N[C@H](C(=O)NCC(=O)N[C@@](C)(CC(C)C)C(=O)N[C@@H](CC(C)C)C(=O)N[C@@H](CCC(N)=O)C(=O)N[C@H](C(=O)N[C@@H](CCCCN)C(=O)N[C@@H](CC(C)C)C(=O)N[C@@H](CCC(=O)O)C(=O)N[C@@H](CCC(N)=O)C(=O)N[C@@H](CCC(=O)O)C(=O)N[C@@H](CCCNC(=N)N)C(=O)N[C@@H](C)C(=O)N[C@@H](CCC(=O)O)C(=O)N[C@@H](CCCCN)C(=O)N[C@@H](C)C(=O)N[C@@H](CCCNC(=N)N)C(=O)N[C@@H](CCC(N)=O)C(=O)N[C@@H](CCC(N)=O)C(=O)N[C@@H](C)C(=O)N[C@@H](CCCCNC(=O)COCCOCCNC(=O)[C@@H](N)CCCCNC(=O)CC[C@H](NC(=O)CCCCCCCCCCCCCCCCCCC(=O)O)C(=O)O)C(=O)N[C@@H](CCC(=O)O)C(=O)N[C@@H](CC(N)=O)C(=O)N[C@H](C(=O)N[C@@H](CCC(=O)O)C(=O)N[C@H](C(=O)N[C@@H](CC(C)C)C(=O)N[C@@H](C)C(=O)N[C@@H](CCC(N)=O)C(=O)N[C@H](C(N)=O)C(C)C)[C@@H](C)CC)[C@@H](C)O)[C@@H](C)CC)[C@@H](C)O)C(C)C)[C@@H](C)O)C(C)C` [SEQ ID NO: 32, Ac-IVTS αMeL D (D-Val) PTG αMeL LQIKLEQERAEKARQQAK((2-[2-(2-Amino-ethoxy)-ethoxy]-acetyl)-ϵK-γE-CO-(CH2)18-CO2H)ENTEILAQV-NH2] (Ac-IVTS[αMeL]D[dV]PTG[αMeL]LQIKLEQERAEKARQQAK([AEEA-εLys-γGlu-C20 diacid])ENTEILAQV-NH2) yielded an EC50 (human CRHR1) greater than 1e+07 pM and an EC50 (human CRHR2) of 5.4 ± 0.7 pM.
